The text below walks through data of US12428415B2, “Matriptase 2 inhibitors and uses thereof” (Disc Medicine, Inc., priority 2018, dated 2025).

The first experiment deals with T1, Human Recombinant Matriptase 2 (Homo sapiens, UniProt Q8IU80).
T1 construct: purchased Enzo Life Sciences (an in-house preparation was also used) ALX-201-752-1
T1 sequence (Q8IU80 1-811): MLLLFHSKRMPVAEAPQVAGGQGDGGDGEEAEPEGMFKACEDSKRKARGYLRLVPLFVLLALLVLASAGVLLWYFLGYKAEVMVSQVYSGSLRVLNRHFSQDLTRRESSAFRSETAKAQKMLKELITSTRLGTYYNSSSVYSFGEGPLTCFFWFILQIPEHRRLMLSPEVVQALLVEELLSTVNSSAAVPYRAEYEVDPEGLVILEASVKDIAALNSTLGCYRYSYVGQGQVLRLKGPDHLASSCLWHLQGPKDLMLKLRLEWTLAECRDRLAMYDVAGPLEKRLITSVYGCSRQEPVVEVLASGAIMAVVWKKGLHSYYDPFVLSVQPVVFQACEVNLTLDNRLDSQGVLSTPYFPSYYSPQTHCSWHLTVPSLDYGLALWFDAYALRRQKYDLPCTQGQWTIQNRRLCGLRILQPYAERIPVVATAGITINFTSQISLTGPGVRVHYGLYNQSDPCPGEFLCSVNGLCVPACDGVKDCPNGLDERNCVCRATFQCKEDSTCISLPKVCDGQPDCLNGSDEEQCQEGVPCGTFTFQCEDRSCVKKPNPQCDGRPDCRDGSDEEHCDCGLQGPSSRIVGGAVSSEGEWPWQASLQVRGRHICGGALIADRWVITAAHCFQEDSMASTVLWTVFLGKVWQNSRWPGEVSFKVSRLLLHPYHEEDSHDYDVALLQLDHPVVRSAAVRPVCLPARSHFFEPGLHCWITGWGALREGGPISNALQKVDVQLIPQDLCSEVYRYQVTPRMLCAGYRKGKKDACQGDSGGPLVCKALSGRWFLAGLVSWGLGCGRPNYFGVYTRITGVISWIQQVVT
The experiment can be described thus: Matriptase 2 fluorescence based inhibition assay, Method B (50 mM TRIS pH 7.5, 150 mM NaCl, 0.01% gelatin). The format is biochemical. As to conditions: 1 uM compound; Assay Used = B. The essentials: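 Commercial (7 nM) or in-house (15 nM) enzyme preincubated 30 min with compound at 25° C, then 100 μM Boc-Gln-Ala-Arg-AMC added; fluorescence (Ex 360/Em 480 nm) read at 60 min. 1% DMSO final. IC50 from variable-slope sigmoidal fit of % inhibition.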
As for `CC(C)(C)OC(=O)N[C@H]1CC[C@H](NC(=O)c2cc3ccc(C(=N)N)cc3n2Cc2cccc3ccccc23)CC1` [Compound I-403], the “Mar-2 % inhibition at 1 uM” value was “A (A represents 0%≤I≤25%)”.

The same experiment, now with this note: 1 uM compound; Assay Used = B (Method B); read-out: Mar-2 % inhibition at 1 uM.
`CNC(=N)c1ccc2[nH]c(C(=O)N[C@H]3CC[C@H](N)CC3)c(Cc3cccc4ccccc34)c2c1` [Compound I-747]: the inhibition at 1 µM fell in the range of 0 to 25%.
Still for that read-out and setting: for `NCc1ccc2cc(C(=O)N[C@H]3CC[C@H](N)CC3)n(Cc3cc(Oc4ccccc4)cc4ccccc34)c2c1` [Compound I-635] the value was 50 to 75%; for `N=C(N)c1cnc2cc(C(=O)O)n(Cc3cccc4ccccc34)c2c1` [Compound I-713], 0 to 25%.
Still for that read-out and setting: for `N=C(N)c1ccc2cc(C(=O)O)n(C[C@H]3CCCc4ccccc43)c2c1` (racemic) [Compound I-613] the value was 25 to 50%.
The same measure, in the same setting: in the case of `CC(C)COC(=O)c1cc(Cn2c(C(=O)N[C@H]3CC[C@H](N)CC3)cc3ccc(C(=N)N)cc32)c2ccccc2c1` [Compound I-780] it was 75 to 100%; in that of `COC(=O)NCCOC(=O)c1cc2ccc(C(=N)N)cc2n1Cc1cccc2ccccc12` [Compound I-602], 50 to 75%; in that of `CCn1c(C(=O)O)c(Cc2cccc3ccccc23)c2cc(C(=N)N)ccc21` [Compound I-685], 50 to 75%.
As to `CCOC(=O)c1cc2ccc(/C(N)=N\O)cc2n1Cc1cc(Oc2ncccn2)cc2ccccc12` [Compound I-630, ethyl (Z)-6-(N′-hydroxycarbamimidoyl)-1-((3-(pyrimidin-2-yloxy)naphthalen-1-yl)methyl)-1H-indole-2-carboxylate], the inhibition at 1 µM fell in the range of 0 to 25%.
Consider `CO/N=C(/N)c1ccc2cc(C(=O)O)n(Cc3cccc4ccccc34)c2c1` [Compound I-699, (E)-6-(N′-methoxycarbamimidoyl)-1-(naphthalen-1-ylmethyl)-1H-indole-2-carboxylic Acid], for which the inhibition at 1 µM fell in the range of 0 to 25%.
`N=C(N)c1ccc2cc(C(=O)O)n(Cc3cc(N4CCOCC4=O)cc4ccccc34)c2c1` [Compound I-692]: the inhibition at 1 µM fell in the range of 0 to 25%.
The same measure, in the same setting: in the case of `NC(=NO)c1ccc2cc(C(=O)O)n(Cc3cccc4ccccc34)c2n1` [Compound I-650] it was 0 to 25%.
The same measure, in the same setting: in the case of `CC1(O)CCC(OC(=O)c2cc3ccc(C(=N)N)cc3n2Cc2cc(Oc3ccccc3)cc3ccccc23)CC1` (stereo not drawn) [Compound I-617] it was 0 to 25%; in that of `N=C(N)c1ccc2cc(C(=O)N[C@H]3CC[C@H](N)CC3)n(Cc3cccc4cc(Oc5ccccc5)ccc34)c2c1` [Compound I-707], 75 to 100%.
Take `N=C(N)c1ccc2cc(C(=O)O)n(Cc3cc(Oc4ccc(N)cc4F)cc4ccccc34)c2c1` [Compound I-639]: the inhibition at 1 µM was in the range of 50 to 75%.
Regarding `N=C(N)c1ccc2cc(C(=O)O)n(Cc3cc(OS(=O)(=O)c4ccccc4)cc4ccccc34)c2c1` [Compound I-621], the inhibition at 1 µM was in the range of 75 to 100%.
On the same count and under the same terms, for `N=C(N)c1ccc2cc(C(=O)N[C@H]3CC[C@H](N)CC3)n(Cc3cc(Oc4ncccn4)cc4ccccc34)c2c1` [Compound I-670] the value was 75 to 100%; for `N=C(N)c1ccc2cc(C(=O)N[C@H]3CC[C@H](NC=O)CC3)n(Cc3cccc4ccccc34)c2c1` [Compound I-729], 50 to 75%.
The same measure, in the same setting: in the case of `CCOC(=O)c1cc2ccc(/C(N)=N/O)cc2n1Cc1cccc2ccccc12` [Compound I-675, Ethyl (Z)-6-(N′-hydroxycarbamimidoyl)-1-(naphthalen-1-ylmethyl)-1H-indole-2-carboxylate] it was 0 to 25%.

The same experiment, now with this note: 1 uM compound; Assay Used = B; read-out: Mar-2 % inhibition at 1 uM.
Regarding `N=C(N)c1ccc2nc(C(=O)N[C@H]3CC[C@H](N)CC3)n(Cc3cccc4ccccc34)c2c1` [Compound I-542, N-((1r,4r)-4-aminocyclohexyl)-6-carbamimidoyl-1-(naphthalen-1-ylmethyl)-1H-benzo[d]imidazole-2-carboxamide], the inhibition at 1 µM lay within 75 to 100%.
As for `N=C(N)c1ccc2cc(C(=O)N3CCCNCC3)n(Cc3cccc4ccccc34)c2c1` [Compound I-442], the inhibition at 1 µM fell in the range of 50 to 75%.
The same measure, in the same setting: in the case of `CN1CC[C@@H](NC(=O)c2cc3ccc(C(=N)N)cc3n2Cc2cccc3ccccc23)C1` [Compound I-450] it was 75 to 100%; in that of `COC(=O)NCCOC(=O)c1cc2ccc(C(=N)NC(=O)OCC(C)C)cc2n1Cc1cc(Oc2ncccn2)cc2ccccc12` [Compound I-550], 0 to 25%; in that of `CC(C)(C)OC(=O)NCc1ccc2cc(C(=O)O)n(Cc3cccc4ccccc34)c2c1` [Compound I-539, 6-(((tert-butoxycarbonyl)amino)methyl)-1-(naphthalen-1-ylmethyl)-1H-indole-2-carboxylic Acid], 0 to 25%.
Still for that read-out and setting: in the case of `CCOC(=O)c1cc2ccc(/C(N)=N/C#N)cc2n1Cc1cc(Oc2ncccn2)cc2ccccc12` [Compound I-558, ethyl (Z)-6-(N′-cyanocarbamimidoyl)-1-((3-(pyrimidin-2-yloxy)naphthalen-1-yl)methyl)-1H-indole-2-carboxylate] it was 0 to 25%; in that of `COc1ccc2c(Cn3c(C(=O)N[C@H]4CC[C@H](N)CC4)cc4ccc(C(=N)N)cc43)cccc2c1` [Compound I-506], 75 to 100%; in that of `CCOC(=O)c1cc2ccc(C(=N)NC(=O)OCC(C)C)cc2n1Cc1cc(Oc2ccsc2)cc2ccccc12` [Compound I-586], 25 to 50%.
Same read-out and setting: for `N=C(N)c1ccc2cc(C(=O)Nc3ccc(N4CCC(F)C4)cc3)n(Cc3cccc4ccccc34)c2c1` (stereo not drawn) [Compound I-447] the value was 25 to 50%; for `N=C(N)c1ccc2cc(C(N)=O)n(Cc3cccc4ccccc34)c2c1` [Compound I-437], 75 to 100%.
For the compound `N=C(N)c1ccc2cc(C(=O)O)n(Cc3cc(OCc4ncccn4)cc4ccccc34)c2c1` [Compound I-563], the inhibition at 1 µM was in the range of 50 to 75%.
The same measure, in the same setting: for `NCc1ccc2cc(C(=O)N[C@H]3CC[C@H](N)CC3)n(Cc3cccc4ccccc34)c2c1` [Compound I-531, N-((1r,4r)-4-aminocyclohexyl)-6-(aminomethyl)-1-(naphthalen-1-ylmethyl)-1H-indole-2-carboxamide] the value was 50 to 75%; for `N=C(N)c1ccc2cc(C(=O)Nc3cccc(-c4ncc[nH]4)c3)n(Cc3cccc4ccccc34)c2c1` [Compound I-448], 25 to 50%.
Consider `CC(C)COC(=O)NC(=N)c1ccc2cc(C(=O)OCc3ccccc3)n(Cc3cc(Oc4ncccn4)cc4ccccc34)c2c1` [Compound I-581], for which the inhibition at 1 µM was in the range of 25 to 50%.
Regarding `Cn1nc(C(F)(F)F)c(C=O)c1Oc1cc(Cn2c(C(=O)O)cc3ccc(C(=N)N)cc32)c2ccccc2c1` [Compound I-584], the inhibition at 1 µM fell in the range of 0 to 25%.

The experiment is the same for the next values; noted with them: 1 uM; Assay Used B; read-out: Mar-2 % inhibition at 1 uM.
`N=C(N)c1ccc2cc(C(=O)N[C@H]3CC[C@H](N)CC3)n(S(=O)(=O)c3ccc4ccccc4c3)c2c1` [Compound I-37]: the inhibition at 1 µM fell in the range of 0 to 25%.

Staying with this experiment, now noted: compound at 1 uM; Assay Used: B; read-out: Mar-2 % inhibition at 1 uM.
In the case of `N=C(N)c1ccc2cc(C(=O)N[C@H]3CC[C@H](N)CC3)n(Cc3cc(C(=O)O)cc4ccccc34)c2c1` [Compound I-806], the inhibition at 1 µM was 50 to 75%.
On the same count and under the same terms, in the case of `N=C(N)c1ccc2cc(C(=O)NC3CCNC[C@@H]3F)n(Cc3cccc4ccccc34)c2c1` (stereo partly drawn) [Compound I-816] it was 75 to 100%.
With `COC(=O)c1ccc(Cn2c(C(=O)N[C@H]3CC[C@H](N)CC3)cc3ccc(C(=N)N)cc32)c2ccccc12` [Compound I-825], the inhibition at 1 µM is 75 to 100%.

Staying with this experiment, now noted: read-out: Mar-2 % inhibition at 1 uM.
With `N=C(NC(=O)Oc1ccccc1)c1ccc2cc(C(=O)O)n(Cc3cc(Oc4ncccn4)cc4ccccc34)c2c1` [Compound I-551], the inhibition at 1 µM fell in the range of 0 to 25%.
